Laboratory results: patent US7998999B2, “Cyclohexyl substituted pyrrolidinones as inhibitors of 11-beta-hydroxysteroid dehydrogenase 1” (Eli Lilly and Company, priority 2006, dated 2011)

Assays:
[1] = biological target: T1, 11β-HSD1 in primary human aortic smooth muscle cells (AoSMC) (Homo sapiens, UniProt P28845); experiment: Human Aortic Smooth Muscle Cell Assay (cortisone to cortisol conversion); format: cell-based; conditions: AoSMC induced with hTNFα, 10 μM cortisone, cortisol by time resolved immunoassay
T1 construct: containing 12 ng/mL hTNFα to induce expression of 11β-HSD1; endogenous in cells; host or cells: primary human aortic smooth muscle cells (AoSMC), induced with hTNFα
T1 sequence (P28845 whole entry): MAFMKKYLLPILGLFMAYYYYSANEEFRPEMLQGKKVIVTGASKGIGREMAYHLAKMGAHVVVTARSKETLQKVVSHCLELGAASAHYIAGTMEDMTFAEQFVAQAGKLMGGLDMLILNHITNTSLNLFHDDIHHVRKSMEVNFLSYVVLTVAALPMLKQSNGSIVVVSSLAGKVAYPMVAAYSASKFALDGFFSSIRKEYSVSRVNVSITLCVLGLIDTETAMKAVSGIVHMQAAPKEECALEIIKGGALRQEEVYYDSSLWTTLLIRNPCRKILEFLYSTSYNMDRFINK
Protocol: Human Aortic Smooth Muscle Cell Assay
Primary human aortic smooth muscle cells (AoSMC) are cultured in 5% FBS growth medium to a passage number of 6, then pelleted by centrifugation and resuspended at a density of 9×10^4 cells/mL in 0.5% FBS assay medium containing 12 ng/mL hTNFα to induce expression of 11β-HSD1. Cells are seeded into 96-well tissue culture assay plates at 100 μL/well (9×10^3 cells/well) and incubated for 48 hours at 37° C., 5% CO2. Following induction, cells are incubated for 4 hours at 37° C., 5% CO2 in assay medium containing test compounds then treated with 10 μL/well of 10 μM cortisone solubilized in assay medium, and incubated for 16 hours at 37° C., 5% CO2. Medium from each well is transferred to a plate for subsequent analysis of cortisol using a competitive fluorescence resonance time resolved immunoassay. In solution, an allophycocyanin (APC)-cortisol conjugate and free cortisol analyte compete for binding to a mouse anti-cortisol antibody/Europium (Eu)-anti mouse IgG complex. Higher levels of free cortisol result in diminishing energy transfer from the Europium-IgG to the APC-cortisol complex resulting in less APC fluorescence. Fluorescent intensities for Europium and APC are measured using a LJL Analyst AD. Europium and APC excitation is measured using 360 nm excitation and 615 nm and 650 nm emission filters respectively. Time resolved parameters for Europium were 1000 μs integration time with a 200 μs delay. APC parameters are set at 150 μs integration time with a 50 μs delay. Fluorescent intensities measured for APC are modified by dividing by the Eu fluorescence (APC/Eu). This ratio is then used to determine the unknown cortisol concentration by interpolation using a cortisol standard curve fitted with a 4-parameter logistic equation. These concentrations are then used to determine compound activity by plotting concentration versus % inhibition, fitting with a 4-parameter curve and reporting the IC50.

[2] = biological target: recombinant human 11β-HSD type 1 enzyme (Homo sapiens, UniProt P28845); experiment: 11β-HSD Type 1 Enzyme Assay (NADPH fluorescence); format: biochemical; conditions: three hour incubation at room temperature, read-out: Human 11-βHSD1 IC50
recombinant human 11β-HSD type 1 enzyme, sequence (P28845 whole entry): as above
Protocol: 11β-HSD Type 1 Enzyme Assay
Human 11β-HSD type 1 activity is measured by assaying NADPH production by fluorescence assay. Solid compounds are dissolved in DMSO to a concentration of 10 mM. Twenty microliters of each are then transferred to a column of a 96-well polypropylene Nunc plate where they are further diluted 50-fold followed by subsequent two-fold titration, ten times across the plate with additional DMSO using a Tecan Genesis 200 automated system. Plates are then transferred to a Tecan Freedom 200 system with an attached Tecan Temo 96-well head and an Ultra 384 plate reader. Reagents are supplied in 96-well polypropylene Nunc plates and are dispensed individually into black 96-well Molecular Devices High Efficiency assay plates (40 μL/well capacity) in the following fashion: 9 μL/well of substrate (2.22 mM NADP, 55.5 μM Cortisol, 10 mM Tris, 0.25% Prionex, 0.1% Triton ×100), 3 μL/well of water to compound wells or 3 μL to control and standard wells, 6 μL/well recombinant human 11β-HSD type 1 enzyme, 2 μL/well of compound dilutions. For ultimate calculation of percent inhibition, a series of wells are added that represent assay minimum and maximum: one set containing substrate with 667 μM carbenoxolone (background), and another set containing substrate and enzyme without compound (maximum signal). Final DMSO concentration is 0.5% for all compounds, controls and standards. Plates are then placed on a shaker by the robotic arm of the Tecan for 15 seconds before being covered and stacked for a three hour incubation period at room temperature. Upon completion of this incubation, the Tecan robotic arm removes each plate individually from the stacker and places them in position for addition of 5 μL/well of a 250 μM carbenoxolone solution to stop the enzymatic reaction. Plates are then shaken once more for 15 seconds then placed into an Ultra 384 microplate reader (355EX/460EM) for detection of NADPH fluorescence.

Compound | IC50 [1] [nM] | IC50 [2] [nM]
3-(4-Bromo-2-chloro-benzyl)-trans-1-(4-fluoro-cyclohexyl)-pyrrolidin-2-one [Example 10] | 33 | 250
O=C1[C@H](Cc2c(Cl)cc(-c3ccc(F)cc3)cc2Cl)CCN1C1CCC(F)(F)CC1 [Example 3, (R)-3-(3,5-Dichloro-4′-fluoro-biphenyl-4-ylmethyl)-1-(4,4-difluoro-cyclohexyl)-pyrrolidin-2-one] | 9.6 | 364
Cn1cc(-c2cc(Cl)c(C[C@@H]3CCN(C4CCC(F)(F)CC4)C3=O)c(Cl)c2)cn1 [Example 6, (R)-3-[2,6-Dichloro-4-(1-methyl-1H-pyrazol-4-yl)-benzyl]-1-(4,4-difluoro-cyclohexyl)-pyrrolidin-2-one] | 9.1 | 302

The next compounds have a lower IC50 [1] than those just listed; values first:

IC50 [1] [nM] | IC50 [2] [nM] | Compound
7.5 | 446 | O=C1C(Cc2ccc(Br)cc2Cl)CCN1[C@H]1CC[C@@H](F)CC1 (stereo partly drawn) [Example 11, 3-(4-Bromo-2-chloro-benzyl)-cis-1-(4-fluoro-cyclohexyl)-pyrrolidin-2-one]
3.9 | 260 | O=C1C(Cc2c(Cl)cc(-c3cccnc3)cc2Cl)CCN1[C@H]1CC[C@@H](F)CC1 (stereo partly drawn) [Example 12, 3-(2,6-Dichloro-4-pyridin-3-yl-benzyl)-cis-1-(4-fluoro-cyclohexyl)-pyrrolidin-2-one]
